Data set [1] relates to subjects with metabolic syndrome. Kind of data set: Phase 1b study, vital signs. The format is in vivo, human. The note with it: 25 mg oral daily for 28 days. From the text:
BP, HR, RR and OT will be measured at screening and pre-dose on Days 1, 8, 15, and 22, on Day 29 (+2 days), and at the FU Visit/EOS/ET on Day 35 (+2 days). Vital signs will be measured in a sitting position (except for safety reasons and when ECG are planned around the same time). When vital signs measurements coincide with a blood draw, they should preferably be performed before the blood collection, whenever possible.

The test system is the same in data set [2]. Kind of data set: Phase 1b study, pharmacodynamic effects of INV-202 over 28 days (weight, waist, lipids, glucose, endocrine and renal markers). Type of data set: in vivo, human. As to the method: A phase 1b study to examine the pharmacokinetic and pharmacodynamic effects of INV-202 in subjects with metabolic syndrome as defined by hypertriglyceridemia, abdominal obesity, and impaired glucose tolerance over 28 days was performed.
This is single center, Phase 1B, randomized, double-blind, placebo-controlled, 28-day repeat dose study.
The study includes subjects with evidence of metabolic syndrome and glucose intolerance that are randomized 1:1 to receive either INV-202 or placebo. 20 subjects will receive 25 mg of INV-202 and 20 subjects will receive a matching placebo daily for 28 consecutive days, for a total of 40 subjects.
Subjects will receive a daily oral dose of INV-202 25 mg or a matching placebo for 28 consecutive days.
Body measurements performed at screening will include height and weight measurements, waist circumference, as well as BMI calculation. Height will only be measured at screening. Weight and waist circumference will also be measured pre-dose on Days 1, 8, 15, and 22, and on Day 29 (+2 days). BMI will be calculated as needed.
Weight and waist circumference will be measured in triplicate using a standard measuring method. The same scale should be used at all visits for a given subject. The scale should be calibrated according to the manufacturer's recommendation. A medical grade scale for weight should be used.
(§1) The following will be assessed: sodium, potassium, chloride, glucose, blood urea nitrogen, creatinine, creatinine clearance, direct bilirubin, indirect bilirubin, bilirubin total, ALP, AST, ALT, albumin, lactate dehydrogenase, calcium, lipase, amylase, phosphorus, HbA1C, serum ferritin and total protein.
In addition, a lipid profile will also be assessed: total cholesterol, HDL, LDL, VLDL and triglycerides. […]
The following will be assessed only pre-dose on Days 1, 8, 15, and 22, on Day 29 (+2 days), and at the FU Visit/EOS/ET on Day 35 (+2 days): C-peptide, insulin, TSH, and T4.
The OGTT will be performed at screening, on Day −1, and on Day 29 (+2 days). The OGTT will not need to be performed at screening if there is evidence of HbA1C≥5.7% but ≤6.4% obtained within the last 3 months.
For the OGTT performed on Day 29 (+2 days), a 75 g glucose load will be administered with blood draws at 30 minutes, 1 hour, 2 hours and 3 hours post-intake.
The following PD parameters will be evaluated: • 1) 0-3 hour AUC blood glucose level during OGTT • 2) Plasma insulin level—change from baseline to EOS/ET • 3) C-peptide level—change from baseline to EOS/ET • 4) Plasma lipid profile (HDL, LDL, VLDL, triglycerides)—change from baseline to EOS/ET • 5) Adiponectin and leptin—change from baseline to EOS/ET • 6) hs-CRP—change from baseline to EOS/ET • 7) Weight—change from baseline to EOS/ET • 8) Waist circumference—change from baseline to EOT/ET • 9) Appetite and Food Intake questionnaire score—change from baseline to EOT/ET • 10) Urine albumin to creatinine ratio—change from baseline to EOS/ET
All PD analyses will be descriptive only and no formal statistical analysis is planned. Descriptive statistics will be used to describe change from baseline in values including glucose AUC during OGTT, fasting insulin level and C-peptide levels, lipids (e.g., triglycerides, HDL), adiponectin and other biomarkers. Exploratory analysis in PD versus AEs may be performed to evaluate the Exposure-Response.

Data set [3] shares this test system. Kind of data set: Phase 1b study, Columbia Suicidality Severity Rating Scale (C-SSRS). The note with it: INV-202 group, EOT; 25 mg oral daily for 28 days. Type of data set: in vivo, human. An excerpt:
A suicide risk assessment will be performed using the C-SSRS questionnaire at screening, Day −1 (if more than 21 days have passed since the screening C-SSRS), Day 29 (+2 days) and at the FU Visit/EOS/ET on Day 35 (+2 days).
This scale will be administered by a member of the medical team, completed on site, and will be on paper. The “Lifetime” C-SSRS questionnaire template will be used at the screening visit and on Day −1 (if applicable), and the “since last visit” C-SSRS questionnaire template will be used on Day 29 (+2 days) and at the FU Visit/EOS/ET. If the Investigator determines that a subject is at risk of suicide or self-harm, he/she must immediately be discontinued from the study and appropriate measures to ensure the subject's safety and obtain mental health evaluation must be implemented. The event should be recorded as either an AE or a SAE, as determined by the Investigator, and reported within 24 hours to the Sponsor.

Data set [4] concerns DIO mouse model. Kind of data set: Effect on body weight and metabolic parameters in DIO mouse model. Type of data set: in vivo. An excerpt: The effect of INV-202 on body weight and food consumption was studied in a DIO mouse model.
Data set [5] concerns subjects with metabolic syndrome. Kind of data set: Phase 1b study, liver safety (liver chemistry). Type of data set: in vivo, human.
From the text: as §1
The hepatic safety of all randomized subjects will be assessed through the use of the following algorithm based on FDA DILI management guidelines (Center for Drug Evaluation and Research (CDER), FDA. Guidance for Industry: Drug-Induced Liver Injury: Premarketing Clinical Evaluation. July 2009).
An increase of serum ALT or AST>3×ULN should be followed by repeat testing within 48 to 72 hours of all four of the usual serum measures (ALT, AST, ALP, and TBL) to confirm the abnormalities and to determine if they are increasing or decreasing. There also should be inquiry made about symptoms.

For data set [6] the following is noted: background statement, cited from earlier work.
The mark [7] stands for this setting: 25 mg oral daily for 28 days, SD in next cell.
Setting [8] is: 25 mg oral daily for 28 days, Table 3, SD in next cell.
[9] abbreviates: 25 mg oral daily for 28 days, endocrine lab data, Table 3.
[10] abbreviates: following 28-days of repeat dosing.

We go through two compounds from US20250152557A1, “METHODS FOR TREATING SUBJECTS WITH ABDOMINAL OBESITY […] AND/OR IMPAIRED GLUCOSE” (NOVO NORDISK A/S, priority 2022, published 2025).

Each structure is given as a SMILES string.

Regarding `CC(=O)N/C(N)=N/C(=N\S(=O)(=O)c1ccc(C(F)(F)F)cc1)N1C[C@H](c2ccccc2)C(c2ccc(Cl)cc2)=N1` [INV-202, N-{[(S)-{[3-(4-chlorophenyl)-4-phenyl-4,5-dihydro-1H-pyrazol-1-yl][4-(trifluoromethyl)benzenesulfonamido]methylidene}amino]methanimidoyl}acetamide], in data set [1], the “Diastolic Blood Pressure (DBP), change from baseline” value is given as −0.25 mmHg; the “Heart Rate, change from baseline” value came out at 2.3 bpm; the “Systolic Blood Pressure (SBP), change from baseline” value was −4.65 mmHg; the “Temp, change from baseline” value was −0.045 °C. Moreover, in data set [2] (25 mg oral daily for 28 days), the “BMI, change from baseline” value was −1.20 kg/m^2; the “HDL (%), change from baseline” value was determined as 0.13%; the “Triglycerides (%), change from baseline” value is recorded as −7.9%. Besides, the “OGTT (0-3 hour AUC blood glucose), change from baseline” value in data set [2] (25 mg oral daily for 28 days, 75 g glucose load, SD in next cell) was found to be 2.24 mmol·h/L. In data set [2] (setting [7]), the “C-peptide, change from baseline” value was found to be 0.036 nmol/L; the “HDL, change from baseline” value stood at 0.0015 mmol/L; the “HgbA1C, change from baseline” value is recorded as −0.005%; the “Insulin, change from baseline” value is -5.0 pmol/L. In data set [2] (setting [7]), the “LDL, change from baseline” value is -0.50 mmol/L; the “Total Chol., change from baseline” value is -0.56 mmol/L; the “Triglycerides, change from baseline” value is -0.179 mmol/L; the “VLDL, change from baseline” value was -0.08 mmol/L. Moreover, in data set [2] (setting [7]), the “Waist, change from baseline” value is given as −1.91 cm; the “Weight (%), change from baseline” value is reported as −3.33%; the “Weight, change from baseline” value was -3.50 kg; the “hs-CRP, change from baseline” value is -1.6 mg/L. For the same compound, the “Leptin (%)” value in data set [2] (25 mg oral daily for 28 days, Table 3) is listed as −18%. In data set [2] (setting [8]), this compound registered an Adiponectin of 0.15 mg/L and a Leptin of -2.64 µg/L. In data set [2] (setting [9]), the T4 was found to be 0.516 pmol/L and the TSH is recorded as −0.014 mIU/L. The “eGFR (CKD-EPI 2021)” value in data set [2] (25 mg oral daily for 28 days, renal lab data, Table 3) was 3.23 mL/min/1.73 m2. Also, the “maximum weight loss by percentage” value in data set [2] (after 28 days of treatment, individual patient maximum) is recorded as 6%. For the same compound, in data set [2] (after 28 days of treatment, individual patient minimum), the “lowest weight loss by percentage” value stood at 0.1%. Besides, in data set [2] (day 8, statistically significant), the “average weight loss at first clinic visit” value amounted to 1.4%. In addition, the “weight change of individual patients” value in data set [2] (every single patient on INV-202) is reported as “lost weight”. Further, in data set [3], the “C-SSRS: Non-specific active suicidal thoughts” value was 0, the “C-SSRS: Suicidal behaviour” value came to 0 and the “C-SSRS: Wished to be dead” value turned out to be 0. Moreover, in data set [4], the C-peptide levels result is reported as “significant effects in reducing C-peptide levels”, the “glucose AUC in an OGTT test” value was “decreased glucose AUC” and the insulin levels entry is reported as “significant effects in reducing”. For the same compound, in data set [4] (setting [10]), the ALT entry is reported as “significantly decreased ALT” and the liver triglyceride entry is given as “significantly decreased”. For the same compound, in data set [4] (following 10 days of dosing), the body weight result is “dose dependently reduce body weight”. In addition, the liver chemistry result in data set [5] (all patients throughout the study) is “within normal limits”. Moreover, the “changes for bilirubin (total, direct, indirect) or transaminases (AST and ALT)” value in data set [5] (throughout the study) was “no significant changes”.

For `Cc1c(C(=O)NN2CCCCC2)nn(-c2ccc(Cl)cc2Cl)c1-c1ccc(Cl)cc1` [Rimonabant], the “efficacy in metabolic syndrome” value in data set [6] is reported as “effective in treating metabolic syndrome”. For the same compound, the side effects result in data set [6] (resulted in withdrawal from the market) is reported as “caused neuropsychiatric (i.e. CNS-related) side effects”.
